Results as given in ChEMBL document CHEMBL2086272, “Anticlastogenic effect in human lymphocytes by the sodium salt of 3,4-secoisopimar-4(18),7,15-trien-3-oic acid” (J Nat Prod, 2012).
Activity calls are given as the source filed them. No cut-off for these calls is given here.

Tests used:
PBL [1] = experiment: Cytotoxicity in human PBL assessed as nuclear division index at 33 uM pretreated before colcemid (reference value: 1.63 +/- 0.11 nuclear division index); assay type: cell-based
PBL [2] = experiment: (§1) Antimutagenic activity in human PBL assessed as inhibition of ethyl methanesulfonate-induced frequency of micronucleus per 1000 binucleated lymphocyte cells at 33 uM treated after treatment with ethyl methanesulfonate by cytokinesis blocking technique (reference value: 3.33 +/- 0.33 micronucleus frequency/1000 binucleated lymphocyte cells); assay type: functional
PBL [3] = experiment: Cytotoxicity in human PBL assessed as nuclear division index at 3.3 uM co-treated with ethyl methanesulfonate (reference value: 1.65 +/- 0.06 nuclear division index); assay type: cell-based
PBL [4] = experiment: as §1, with “3.3” for “33”, “co-treated” for “treated after treatment”, “4.00” for “3.33”, “0.41” for “0.33”; assay type: functional
PBL [5] = experiment: Cytotoxicity in human PBL assessed as nuclear division index at 0.3 to 330 uM; assay type: cell-based
PBL [6] = experiment: Cytotoxicity in human PBL assessed as nuclear division index at 330 uM pretreated before colcemid (reference value: 1.63 +/- 0.11 nuclear division index); assay type: cell-based
PBL [7] = experiment: as §1, with “of colcemid-induced” for “of ethyl methanesulfonate-induced”, “at 0.3” for “at 33”, “with colcemid” for “with ethyl methanesulfonate”; assay type: functional
PBL [8] = experiment: Cytotoxicity in human PBL assessed as nuclear division index at 33 uM pretreated before ethyl methanesulfonate (reference value: 1.63 +/- 0.11 nuclear division index); assay type: cell-based
PBL [9] = experiment: Cytotoxicity in human PBL assessed as nuclear division index at 330 uM co-treated with ethyl methanesulfonate (reference value: 1.65 +/- 0.06 nuclear division index); assay type: cell-based
PBL [10] = experiment: Cytotoxicity in human PBL assessed as nuclear division index at 330 uM pretreated before ethyl methanesulfonate (reference value: 1.63 +/- 0.11 nuclear division index); assay type: cell-based
PBL [11] = experiment: Cytotoxicity in human PBL assessed as nuclear division index at 330 uM treated after treatment with ethyl methanesulfonate (reference value: 1.59 +/- 0.08 nuclear division index); assay type: cell-based
PBL [12] = experiment: Cytotoxicity in human PBL assessed as nuclear division index at 1930 uM treated after treatment with ethyl methanesulfonate (reference value: 1.59 +/- 0.08 nuclear division index); assay type: cell-based
PBL [13] = experiment: Cytotoxicity in human PBL assessed as nuclear division index at 33 uM co-treated with ethyl methanesulfonate (reference value: 1.65 +/- 0.06 nuclear division index); assay type: cell-based
PBL [14] = experiment: Cytotoxicity in human PBL assessed as nuclear division index at 3.3 uM treated after treatment with ethyl methanesulfonate (reference value: 1.59 +/- 0.08 nuclear division index); assay type: cell-based
PBL [15] = experiment: Cytotoxicity in human PBL assessed as nuclear division index at 3.3 uM pretreated before ethyl methanesulfonate (reference value: 1.63 +/- 0.11 nuclear division index); assay type: cell-based
PBL [16] = experiment: Cytotoxicity in human PBL assessed as nuclear division index at 3.3 uM treated after treatment with colcemid (reference value: 1.59 +/- 0.08 nuclear division index); assay type: cell-based
PBL [17] = experiment: as §1, with “at 0.3” for “at 33”, “uM pretreated before” for “uM treated after treatment with”, “+/- 0.88” for “+/- 0.33”; assay type: functional
PBL [18] = experiment: Cytotoxicity in human PBL assessed as nuclear division index at 33 uM treated after treatment with colcemid (reference value: 1.59 +/- 0.08 nuclear division index); assay type: cell-based
PBL [19] = experiment: as §1, with “at 0.3” for “at 33”; assay type: functional
PBL [20] = experiment: as §1, with “colcemid-induced” for “ethyl methanesulfonate-induced”, “colcemid” for “ethyl methanesulfonate”; assay type: functional
PBL [21] = experiment: as §1, with “at 1930” for “at 33”; assay type: functional
PBL [22] = experiment: Cytotoxicity in human PBL assessed as nuclear division index at 0.054 uM co-treated with colcemid (reference value: 1.65 +/- 0.06 nuclear division index); assay type: cell-based
PBL [23] = experiment: Cytotoxicity in human PBL assessed as nuclear division index at 3.3 uM pretreated before colcemid (reference value: 1.63 +/- 0.11 nuclear division index); assay type: cell-based
PBL [24] = experiment: (§2) Antimutagenic activity in human PBL assessed as inhibition of colcemid-induced frequency of micronucleus per 1000 binucleated lymphocyte cells at 0.054 uM pretreated before colcemid by cytokinesis blocking technique (reference value: 3.33 +/- 0.88 micronucleus frequency/1000 binucleated lymphocyte cells); assay type: functional
PBL [25] = experiment: as §2, with “0.3” for “0.054”; assay type: functional
PBL [26] = experiment: as §2, with “ethyl methanesulfonate-induced” for “colcemid-induced”, “330” for “0.054”, “ethyl methanesulfonate” for “colcemid”; assay type: functional
PBL [27] = experiment: Cytotoxicity in human PBL assessed as nuclear division index at 33 uM co-treated with colcemid (reference value: 1.65 +/- 0.06 nuclear division index); assay type: cell-based
PBL [28] = experiment: as §2, with “ethyl methanesulfonate-induced” for “colcemid-induced”, “33” for “0.054”, “ethyl methanesulfonate” for “colcemid”; assay type: functional
PBL [29] = experiment: as §1, with “of colcemid-induced” for “of ethyl methanesulfonate-induced”, “at 330” for “at 33”, “with colcemid” for “with ethyl methanesulfonate”; assay type: functional
PBL [30] = experiment: Cytotoxicity in human PBL assessed as nuclear division index at 330 uM treated after treatment with colcemid (reference value: 1.59 +/- 0.08 nuclear division index); assay type: cell-based
PBL [31] = experiment: as §1, with “co-treated” for “treated after treatment”, “4.00” for “3.33”, “0.41” for “0.33”; assay type: functional
PBL [32] = experiment: as §1, with “of colcemid-induced” for “of ethyl methanesulfonate-induced”, “at 0.054” for “at 33”, “with colcemid” for “with ethyl methanesulfonate”; assay type: functional
PBL [33] = experiment: as §2, with “33” for “0.054”; assay type: functional
PBL [34] = experiment: Cytotoxicity in human PBL assessed as nuclear division index at 0.3 uM co-treated with colcemid (reference value: 1.65 +/- 0.06 nuclear division index); assay type: cell-based
PBL [35] = experiment: Cytotoxicity in human PBL assessed as nuclear division index at 330 uM co-treated with colcemid (reference value: 1.65 +/- 0.06 nuclear division index); assay type: cell-based
PBL [36] = experiment: as §2, with “330” for “0.054”; assay type: functional, cell-based
PBL [37] = experiment: as §2, with “3.3” for “0.054”, “co-treated with” for “pretreated before”, “4.00” for “3.33”, “0.41” for “0.88”; assay type: functional
PBL [38] = experiment: as §2, with “330” for “0.054”, “co-treated with” for “pretreated before”, “4.00” for “3.33”, “0.41” for “0.88”; assay type: functional
PBL [39] = experiment: Cytotoxicity in human PBL assessed as nuclear division index at 0.3 uM treated after treatment with colcemid (reference value: 1.59 +/- 0.08 nuclear division index); assay type: cell-based
PBL [40] = experiment: Cytotoxicity in human PBL assessed as nuclear division index at 0.054 uM pretreated before colcemid (reference value: 1.63 +/- 0.11 nuclear division index); assay type: cell-based
PBL [41] = experiment: Cytotoxicity in human PBL assessed as nuclear division index at 0.3 uM treated after treatment with ethyl methanesulfonate (reference value: 1.59 +/- 0.08 nuclear division index); assay type: cell-based
PBL [42] = experiment: as §2, with “ethyl methanesulfonate-induced” for “colcemid-induced”, “1930” for “0.054”, “ethyl methanesulfonate” for “colcemid”; assay type: functional
PBL [43] = experiment: Cytotoxicity in human PBL assessed as nuclear division index at 0.3 uM pretreated before colcemid (reference value: 1.63 +/- 0.11 nuclear division index); assay type: cell-based
PBL [44] = experiment: Cytotoxicity in human PBL assessed as nuclear division index at 0.3 uM co-treated with ethyl methanesulfonate (reference value: 1.65 +/- 0.06 nuclear division index); assay type: cell-based
PBL [45] = experiment: as §2, with “co-treated with” for “pretreated before”, “4.00” for “3.33”, “0.41” for “0.88”; assay type: functional
PBL [46] = experiment: as §1, with “of colcemid-induced” for “of ethyl methanesulfonate-induced”, “at 3.3” for “at 33”, “with colcemid” for “with ethyl methanesulfonate”; assay type: functional
PBL [47] = experiment: as §1, with “330” for “33”, “co-treated” for “treated after treatment”, “4.00” for “3.33”, “0.41” for “0.33”; assay type: functional
PBL [48] = experiment: Cytotoxicity in human PBL assessed as nuclear division index at 1930 uM co-treated with ethyl methanesulfonate (reference value: 1.65 +/- 0.06 nuclear division index); assay type: cell-based
PBL [49] = experiment: as §2, with “0.3” for “0.054”, “co-treated with” for “pretreated before”, “4.00” for “3.33”, “0.41” for “0.88”; assay type: functional
PBL [50] = experiment: (§3) Antimutagenic activity in human PBL assessed as inhibition of colcemid-induced frequency of micronucleus per 1000 binucleated lymphocyte cells at 33 uM co-treated with colcemid by cytokinesis blocking technique (reference value: 4.00 +/- 0.41 micronucleus frequency/1000 binucleated lymphocyte cells); assay type: functional
PBL [51] = experiment: as §3, with “ethyl methanesulfonate-induced” for “colcemid-induced”, “0.3” for “33”, “ethyl methanesulfonate” for “colcemid”; assay type: functional
PBL [52] = experiment: as §2, with “ethyl methanesulfonate-induced” for “colcemid-induced”, “3.3” for “0.054”, “ethyl methanesulfonate” for “colcemid”; assay type: functional
PBL [53] = experiment: Cytotoxicity in human PBL assessed as nuclear division index at 0.3 uM pretreated before ethyl methanesulfonate (reference value: 1.63 +/- 0.11 nuclear division index); assay type: cell-based
PBL [54] = experiment: Genotoxicity in human PBL assessed as micronucleus frequency at 0.3 to 330 uM; assay type: toxicity, cell-based
PBL [55] = experiment: Cytotoxicity in human PBL assessed as nuclear division index at 3.3 uM co-treated with colcemid (reference value: 1.65 +/- 0.06 nuclear division index); assay type: cell-based
PBL [56] = experiment: Cytotoxicity in human PBL assessed as nuclear division index at 33 uM treated after treatment with ethyl methanesulfonate (reference value: 1.59 +/- 0.08 nuclear division index); assay type: cell-based
PBL [57] = experiment: Cytotoxicity in human PBL assessed as nuclear division index at 0.054 uM treated after treatment with colcemid (reference value: 1.59 +/- 0.08 nuclear division index); assay type: cell-based
PBL [58] = experiment: Cytotoxicity in human PBL assessed as nuclear division index at 1930 uM pretreated before ethyl methanesulfonate (reference value: 1.63 +/- 0.11 nuclear division index); assay type: cell-based
PBL [59] = experiment: as §2, with “3.3” for “0.054”; assay type: functional
PBL [60] = experiment: as §3, with “ethyl methanesulfonate-induced” for “colcemid-induced”, “1930” for “33”, “ethyl methanesulfonate” for “colcemid”; assay type: functional
PBL [61] = experiment: as §1, with “at 3.3” for “at 33”; assay type: functional
PBL [62] = experiment: as §1, with “at 330” for “at 33”; assay type: functional

C=C[C@@]1(C)CC[C@H]2C(=CC[C@@H](C(=C)C)[C@]2(C)CCC(=O)[O-])C1.[Na+]
Activity (PBL [1]): 1.31 | Activity (PBL [2]): 19.5 | Activity (PBL [3]): 1.58 | Activity (PBL [4]): 6.75 | Activity (PBL [5]): Non-toxic | Activity (PBL [6]): 1.03 | Activity (PBL [7]): 11.25 | Activity (PBL [8]): 1.42 | Activity (PBL [9]): 1.63 | Activity (PBL [10]): 1.28 | Activity (PBL [11]): 1.31 | Activity (PBL [12]): 1.41 | Activity (PBL [13]): 1.53 | Activity (PBL [14]): 1.36 | Activity (PBL [15]): 1.49 | Activity (PBL [16]): 1.58 | Activity (PBL [17]): 5.5 | Activity (PBL [18]): 1.56 | Activity (PBL [19]): 19.25 | Activity (PBL [20]): 11.75 | Activity (PBL [21]): 20.14 | Activity (PBL [22]): 1.39 | Activity (PBL [23]): 1.28 | Activity (PBL [24]): 22.75 | Activity (PBL [25]): 19.25 | Activity (PBL [26]): 4 | Activity (PBL [27]): 1.51 | Activity (PBL [28]): 3.75 | Activity (PBL [29]): 12.5 | Activity (PBL [30]): 1.56 | Activity (PBL [31]): 5.5 | Activity (PBL [32]): 12.25 | Activity (PBL [33]): 18 | Activity (PBL [34]): 1.37 | Activity (PBL [35]): 1.41 | Activity (PBL [36]): inactive | Activity (PBL [37]): 21.25 | Activity (PBL [38]): 20.25 | Activity (PBL [39]): 1.59 | Activity (PBL [40]): 1.52 | Activity (PBL [41]): 1.43 | Activity (PBL [42]): 14 | Activity (PBL [43]): 1.44 | Activity (PBL [44]): 1.38 | Activity (PBL [45]): 24.78 | Activity (PBL [46]): 12.25 | Activity (PBL [47]): 4.5 | Activity (PBL [48]): 1.55 | Activity (PBL [49]): 21.5 | Activity (PBL [50]): 21 | Activity (PBL [51]): 4 | Activity (PBL [52]): 5.75 | Activity (PBL [53]): 1.46 | Activity (PBL [54]): Non-toxic | Activity (PBL [55]): 1.42 | Activity (PBL [56]): 1.36 | Activity (PBL [57]): 1.65 | Activity (PBL [58]): 1.53 | Activity (PBL [59]): 18.42 | Activity (PBL [60]): 15.8 | Activity (PBL [61]): 19.75 | Activity (PBL [62]): 20
